Experimental data: patent publication US20220040141A1, “ULTRAPURE PHENOL COMPOSITIONS” (priority 2018, published 2022)

What was measured:
[1] = Earlier CBD products (isolate powder, liquid CBD/vitamin E mixture, MCT emulsion) as used orally; type: in vivo; details: particularly relieving stiffness in joints
Text: Prior to preparing the compositions described herein, other CBD products were made, which include food products, including beverages, and mixtures with multiple components, such as an oil/liquid form that is taken directly from a dropper. The products can be flavored. A CBD isolate powder, which is a high purity CBD, can have powerful, and instant benefits. A water soluble CBD/vitamin E mixture can be included in food and drink such as cold pressed juice. […] However, the powder was difficult to work with and dose.
(§1) By mixing with fractionated coconut oil, or medium-chain triglyceride (MCT), a stable emulsion can be formed, which simplifies oral administration of CBD. Some products can mix the full spectrum CBD oil with alcohol or MCT oil, which is known as a tincture. […] For example, a batch of CBD/MCT oil was made using a ratio of 100 mg/ml, which allowed delivery as a spray to the mouth of 20 mg CBD per spray (one spray per serving). In another experiment, a second batch of oil targeted at 33 mg/ml, which targeted 6-7 mg per spray (2-3 sprays per serving). Performance can continue to be less impressive than the CBD powder.

[2] = Physical properties of CBD and its oil compositions; type: physicochemical; details: isolate powder, about 99% pure CBD
Text: The highest purity CBD is known as an isolate. The clear oil, or distillate, goes through another purification process, where it is converted into powder using a solvent, for example, hexane, at low heat.
as §1

[3] = increase of 1 mMol in plasma caprylic acid levels; cited from earlier work

Row | Structure (SMILES) | anti-inflammatory effect [1] | water solubility [2] | increase of ketone body production [3]
1 | C=C(C)[C@@H]1CCC(C)=C[C@H]1c1c(O)cc(CCCCC)cc1O [CBD isolate powder, cannabidiol] | exhibited anti-inflammatory properties | not water soluble | –
2 | CCCCCCCC(=O)O [caprylic acid] | – | – | five-fold
